Ends that are not written are not given here.
Tests used:
[1] = test system: PBMCs from dogs immunised with CDV; assay: T-cell proliferation after in vitro stimulation of PBMC with peptide pools, tested with autologous APCs and single peptides; assay type: cell-based, dog
Protocol: An alternate strategy was used to increase the precursor frequency of specific T cells recognising the CDV peptides. Fresh PBMCs obtained from these hyperimmunised dogs were subjected to stimulation in vitro with pools of all 94 peptides for 30 minutes at 37° C. The cells were then washed to remove any excess peptides and cultured for 7 days. This population of T cells was then tested with autologous APCs with every single peptide as the antigen.
To confirm this observation, the same four dogs were bled again, five weeks after receiving the dose of killed virus. The PBMCs were stimulated in vitro with pools of either all 94 peptides or peptides 21-40 (because most of the activity was in this region) and after 7 days of culture the stimulated T cells were tested against individual peptides. Significant stimulatory indices were obtained with all peptides, confirming the above results. Four more dogs which received only one dose of 3 in 1 vaccine were tested using the in vitro stimulation method and all four dogs responded to the majority of peptides shown in Table 2.
Once again the same peptides and one additional peptide P32 were tested on cells from additional dogs.

LHRH [2] = assay: Trial K9-8: antibody response to LHRH by ELISA; assay type: in vivo, dog; conditions: for antibody responses to LHRH: Trial K9-8, T-cell-LHRH constructs named by their T-cell epitope
Protocol: A total of 35 dogs mixed sex were used in this trial. All had been previously vaccinated with a live CDV vaccine but had not been vaccinated against LHRH.
The T-Helper epitopes were linked to a truncated form of LHRH, containing amino acids 2 to 10 of the native 10 amino acid sequence, as shown below:
All vaccines were formulated as for Example 2, ie each 1 mL dose of vaccine contained 40nmoles of peptide, 150 μg Iscomatrix™, and thiomersal as preservative.
Where dogs were vaccinated with a pool of peptides, the concentration of each peptide was adjusted to give equal concentrations and a total amount of 40 nmoles of LHRH epitope per 1 mL dose.
All dogs were vaccinated with a 1 mL dose, delivered in the scruff of the neck. Vaccinations were given at 0 and 4 weeks and venous blood samples were obtained at intervals during the trial.
Effective T-cell help was determined by measuring the antibody response to LHRH by ELISA. Biological effectiveness of the peptide based vaccine was determined by measuring the levels of progesterone in female dogs and testosterone in male dogs.

[3] = test system: PBMCs obtained from dogs immunised with peptide vaccines; assay: In vitro T cell proliferation assay without enrichment, PBMCs of peptide-vaccinated dogs against Th-epitope and truncated versions; assay type: cell-based, dog; conditions: dogs of Example 2 immunised with the respective Th-epitope-LHRH; FIGS. 2-4
Protocol: The assay was carried out without the enrichment of PBMCs. PBMCs obtained from Ficoll gradient purification were directly tested against the respective Th-epitope and its truncated versions. […] Truncated versions of the respective Th-epitopes were also tested to more closely define the T-cell activity within the sequences. […] This implies that the T-cell activity is towards the N-terminus or middle of the 17-residue peptide.

LHRH [4] = assay: Trial K9-5: antibody response to LHRH by ELISA; assay type: in vivo, dog
LHRH [5] = assay: Trial in BALB/c mice: antibody response to LHRH by ELISA; assay type: in vivo
Protocol: The canine vaccines with CDV-F derived Th-epitopes and LHRH used in Example 3 were also used to immunise BALB/c mice to investigate if the Th-epitopes would be functional in a different animal species.
All vaccines were formulated as for Example 3 except that they were diluted further so that 100 μl doses contained 2.7 nmoles of peptide and 10 μg of Iscomatrix™ and thiomersol as preservative.
Mice were vaccinated with 100 μl of the vaccine at the base of tail. Vaccinations were given at 0 and 4 weeks and animals bled at intervals after each vaccination from the retro-orbital plexus. Effective T-cell help was determined by measuring the antibody response to LHRH by ELISA.

[6] = Table 1, Beagle Foxhound (Dog #18), hyperimmunised, PBMC stimulated with pool of all 94 peptides, 7 days culture
[7] = Table 1, Beagle Foxhound (Dog #19)
[8] = Table 1, Beagle Foxhound (Dog #20)
[9] = Table 1, Beagle Foxhound (Dog #21)
[10] = Table 2, Beagle Foxhound (Dog #71), one dose of 3 in 1 vaccine
[11] = Table 2, Beagle Foxhound (Dog #72), one dose of 3 in 1 vaccine
[12] = Table 2, Beagle Foxhound (Dog #73), one dose of 3 in 1 vaccine
[13] = Table 3, Kelpie Foxhound (Dog #125)
[14] = Table 3, Kelpie Foxhound (Dog #126)

Row | Substance | Stimulatory index [1, 6] | Stimulatory index [1, 7] | Stimulatory index [1, 8] | Stimulatory index [1, 9] | Stimulatory index [1, 10] | Stimulatory index [1, 11] | Stimulatory index [1, 12] | Stimulatory index [1, 13] | Stimulatory index [1, 14] | antibody responses to LHRH (LHRH [2]) | Stimulation indices to Th-epitope and its truncated versions [3] | Stimulatory index ([1]; Table 5, Border Collie) | Stimulatory index ([1]; Table 5, Fox Terrier) | Stimulatory index ([1]; Table 5, Grey hound) | Stimulatory index ([1]; Table 5, Kelpie Pointer) | Stimulatory index ([1]; Table 5, Poodle Shitzu) | Stimulatory index ([1]; Table 5, Terrier Cross) | further results
1 | AELGEYEKLLNSVLEPI (canine distemper virus; synthetic peptide from canine distemper virus fusion protein (CDV-F) designated peptide P27) | 3.3 | 34 | 6.7 | 14.8 | 2.7 | 3.5 | 4.8 | 4.5 | 8.5 | Strong antibody responses | the 17 residue long peptide was a better simulator than the 15-mer |  |  |  |  |  |  | 
2 | ALNNRFQIKGVELKS-(NANP)3 (ALNNRFQIKGVELKSNANPNANPNANP; synthetic control peptide) |  |  |  |  |  |  |  |  |  |  |  |  |  |  |  |  |  | Anti LHRH Titres, 2 wks post boost, Average (LHRH [4]; group average): 1978; Anti LHRH Titres, 6 wks post boost, Average (LHRH [4]; group average): 1941; Anti LHRH Titres, Prebleeds, Average (LHRH [4]; group average): 1794; Anti LHRH Titres, 2 wks post boost, Range (LHRH [4]; group range): 1975-1982; Anti LHRH Titres, 6 wks post boost, Range (LHRH [4]; group range): 1936-1947; Anti LHRH Titres, Prebleeds, Range (LHRH [4]; group range): 1258-2559
3 | KLIPNASLIENCTKAEL (canine distemper virus; synthetic peptide from canine distemper virus fusion protein (CDV-F) designated peptide P25) | 3.2 | 11.9 | 4.5 | 17 | 2.9 | 2 | 12 |  |  | Strong antibody responses | the full sequence of 17 residues was better than the shorter peptides of 15 and 12 residues | <2 | 2.6 | <2 | 2.6 | <2 | <2 | Stimulatory index ([1]; Table 2, Beagle Foxhound (Dog #70), one dose of 3 in 1 vaccine): 1.5
4 | P35-LHRH: T-helper epitope P35 linked to truncated LHRH, amino acids 2 to 10 (SEQ ID NO: 29) (HWSYGLRPG; not fully specified (N-terminus); ends and bridges not checked; also: linked to T-helper epitope P35; listed as Homo sapiens) [Peptide P35-LHRH] |  |  |  |  |  |  |  |  |  |  |  |  |  |  |  |  |  | antibody response to the B-cell epitope (LHRH) (LHRH [4]; Trial K9-5, text): strong antibody responses; Anti LHRH Titres, 2 wks post boost, GMT (LHRH [2]; group GMT): 103085; Anti LHRH Titres, 4 wks after primary, GMT (LHRH [2]; group GMT): 2469; Anti LHRH Titres, 4 wks post boost, GMT (LHRH [2]; group GMT): 58002; Anti-LHRH antibody titre (LHRH [5]; 2 weeks post second vaccination, Mouse 1): 1,412; Anti-LHRH antibody titre (LHRH [5]; 2 weeks post second vaccination, Mouse 2): 800; Anti-LHRH antibody titre (LHRH [5]; 2 weeks post second vaccination, Mouse 3): <100; Anti-LHRH antibody titre (LHRH [5]; 2 weeks post second vaccination, Mouse 4): <100; Anti-LHRH antibody titre (LHRH [5]; 2 weeks post second vaccination, Mouse 5): <100; Anti-LHRH antibody titre (LHRH [5]; 4 weeks post first vaccination, Mouse 1, 2.7 nmoles peptide, base of tail): <100; Anti-LHRH antibody titre (LHRH [5]; 4 weeks post first vaccination, Mouse 2): <100; Anti-LHRH antibody titre (LHRH [5]; 4 weeks post first vaccination, Mouse 3): <100; Anti-LHRH antibody titre (LHRH [5]; 4 weeks post first vaccination, Mouse 4): <100; Anti-LHRH antibody titre (LHRH [5]; 4 weeks post first vaccination, Mouse 5): <100
5 | TAAQITAGIALHQSNLN [Peptide P35] | 3.1 | 57 | 3.3 | 22 |  | 1.7 | 6.8 | 3.8 | 10 | Strong antibody responses | the other three dogs responded as well to the 12 residue peptide as to the full length 17 residue one | 2 | 2.2 | <2 | 2 | <2 | <2 | antibody titres to LHRH (LHRH [5]; BALB/c mice): low antibody titres

— patent US7572454B2, “T helper cell epitopes” (priority 1999, dated 2009)
